Reference: patent publication US20210052600A1, “THERAPEUTIC AGENTS FOR STRESS URINARY INCONTINENCE AND INCOTINENCE OF FECES” (Takeda Pharmaceutical Company Limited, priority 2017, published 2021)
Counter-ions that a name gives are not always drawn. Like-named read-outs stand apart in the source and are kept apart here.

Legend:
[1] = Comparison of plasma concentrations for urethra-closing effect and anti-obesity effect (analysis of Examples 1-9 and literature)
[2] = cited from earlier work
[3] = Plasma concentrations in rats 30 minutes after oral administration (effective plasma concentration at LPP10); details: rat
Procedure: Ten female rats of SD strain were anesthetized with isoflurane. In order to secure the same conditions as those for drug-administered animals, their spinal cord was transected at the T8-T9 (the eighth thoracic cord—the ninth thoracic cord) level. Then, a cannula for blood collection was inserted into the femoral artery. […] These drugs were each dissolved in 0.5% MC. Thirty minutes after oral administration, up to 250 μL of blood was collected from the femoral artery or the tail vein and treated with heparin. The collected blood was immediately cooled on ice and centrifuged under conditions involving 3,000 rpm and 4° C. for 10 minutes to obtain plasma. The plasma samples were stored under conditions of −80° C. until drug quantification.
After thawing of the plasma samples, the internal standard compound was added thereto, and the mixture was then centrifuged under conditions of 5,250 rpm. The drug contained in 60 μL of the supernatant was quantified by LC-MS/MS.

[4] = tested on: urethra-closing reflex response; assay: Urethra-closing reflex response induced by intravesical pressure rise in rats; format: in vivo, rat; details: 20 mg/kg i.d., mean ± SEM
Procedure: Thirty-two female rats of SD strain were used. The rats were anesthetized with urethane. Isoflurane inhalation was added during the surgery, if necessary. Their spinal cord was transected at the T8-T9 (the eighth thoracic cord—the ninth thoracic cord) level to eliminate the reflex voiding and to inhibit the transition from the urine storage phase to the voiding phase in the voiding cycle. After opening of the abdomen, the bladder neck was ligated with suture, and a catheter (PE-100) was inserted into the bladder. The bladder catheter was connected to a pressure transducer and a saline-containing reservoir via three-way stopcocks. A microtip transducer catheter was inserted from the urethral orifice toward the bladder so that its transducer was inserted into the urethra. Local change in pressure within the urethra (intraurethral pressure) was recorded via an electric signal amplifier and an analog-to-digital converter. […] Then, the reservoir was brought back to the original position to adjust the intravesical pressure to its baseline. Such change in intraurethral pressure induced by intravesical pressure rise was repeatedly measured, and the mean value from the last 2 trials was used as a Pre value. The vehicle used was 0.5% MC. […] Thirty minutes after administration, the change in intraurethral pressure induced by intravesical pressure rise was measured again and used as a Post value. The average value before intravesical pressure rise was subtracted from the average value during intravesical pressure rise, and the subtracted value was used as urethra-closing reflex response. The ratio of the Post value to the Pre value was calculated.

urethral resistance [5] = assay: Urethral resistance (LPP) during intravesical pressure rise by electrical stimulation of rat abdominal muscle; format: in vivo; details: mean ± SEM; for LPP Post: 30 minutes after administration; for LPP Increase: Post minus Pre; for LPP Pre: before administration
Procedure: Fifty six female rats of Sprague-Dawley strain (hereinafter, referred to as “SD strain”) were used. The rats were anesthetized with urethane, and their spinal cord was transected at the T8-T9 (the eighth thoracic cord—the ninth thoracic cord) level for the elimination of reflex voiding. Isoflurane inhalation was added, if necessary. After opening of the abdomen, a catheter (PE-100) was inserted into the bladder. In order to secure reduced urethral resistance, unilateral nerve to iliococcygeus and pubococcygeus muscles was transected. For intraduodenal administration, another catheter (PE-50) was inserted into the duodenum in advance. The abdominal muscle and skin were each closed with sutures. Two (right and left) sites of abdominal skin near the diaphragm were cut to expose abdominal muscle. The bladder was emptied through the catheter, followed by the injection of 0.2 to 0.3 mL of 0.1% Evans blue solution. Change in intravesical pressure was recorded using the bladder catheter via a pressure transducer, an electric signal amplifier, and an analog-to-digital converter. While change in intravesical pressure was recorded, the presence or absence of fluid leakage from the urethral orifice was observed under the electrical stimulation of the exposed abdominal muscle using an electrical stimulator and an isolator. […] The peak of the intravesical pressure during the stimulation of the abdominal muscle was measured, and the lowest pressure at which the fluid leakage was observed among the trials was defined as leak point pressure (hereinafter, referred to as “LPP”) for the electrical abdominal muscle stimulation method and used as an index for urethral resistance. Each drug was evaluated for its effect by comparing LPP before drug administration with that after drug administration. […] The drugs were suspended in 0.5% methylcellulose solution (MC). […] LPP was measured again 30 minutes after administration. Regarding change in LPP before and after drug administration, the differences between the mean values of the drug-treated and vehicle groups were analyzed by the one-tailed Williams' test.

urethral resistance [6] = assay: Rat urethral resistance (LPP) measured by high speed infusion of saline into the bladder; format: in vivo; details: mean ± SEM; for LPP Post: 30 minutes after administration; for LPP Increase: Post minus Pre; for LPP Pre: before administration
Source text: The rats were anesthetized with isoflurane. Their spinal cord was transected at the T8-T9 (the eighth thoracic cord—the ninth thoracic cord) level. After opening of the bladder dome, two polyethylene tubes (PE-100) were inserted into the bladder. The incised portion of the bladder was closed with sutures, and the other incisions were also closed. The rats were placed in Bollman cages. The catheter for intravesical pressure measurement was connected to a pressure transducer, while the catheter for saline filling was connected to a syringe filled with Evans Blue-dyed saline. Change in intravesical pressure was recorded using the pressure transducer via an electric signal amplifier and an analog-to-digital converter. After recovery of the animals from anesthesia, the intravesical pressure measurement was started, and saline was infused at a speed of 0.1 mL/sec into the bladder using an infusion pump. The infusion was stopped when the leakage of the saline from the urethral orifice was observed. Immediately thereafter, the bladder was emptied by releasing the pressure. In this operation, the peak of recorded intravesical pressure during the saline infusion was used as LPP in this Example. This measurement was repeated, and the average LPP from the last three measurements was used as the LPP value of the trial. The mean from 2 such trials was used as a Pre value. 0.5% MC was used as the vehicle. […] The difference in LPP from the Pre value (increased amount of LPP) was calculated. Regarding change in LPP before and after drug administration, the differences between the mean values of the drug-treated and vehicle-treated groups were analyzed by the one-tailed Williams' test.

urethra-closing response = assay: MT (threshold inducing urethra-closing response) under transcranial magnetic stimulation in healthy female volunteers; format: in vivo, human; details: for MT of the urethra-closing response in response to TMS, Mean / Rate of change from baseline of MT of the urethra-closing response in response to TMS, Mean: 40 mg capsule single oral dose
Procedure: The test subjects were healthy female volunteers having a body weight of at least 45 kg (average: 50.91 kg, standard deviation: 3.346) and a BMI value of 18.5 kg/m^2 to 25.0 kg/m^2 (average: 19.57 kg/m^2, standard deviation: 0.929).
A washout period of at least 7 days was provided between the treatments.
A capsule containing 40 mg of duloxetine was orally administered as duloxetine together with water. A placebo capsule containing saccharose and spherical starch granules was orally administered as a placebo for duloxetine together with water.
Specifically, during the TMS, the output of a magnetic stimulator (Magstim Rapid Square, manufactured by Magstim Co., Ltd.) was increased by 5% each time using 110 mm double cone coil, and the minimum output at which urethra-closing response occurred abruptly was determined and used as MT (%). The urethra-closing response was detected by measuring contractile responses within the urethra. The contractile response within the urethra was measured using Duet Logic G2 (manufactured by Mediwatch Ltd.) and UniTip (manufactured by Unisensor AG). MT was measured again after administration of each drug, and the rate of change (%) from the baseline was calculated. The rate of change was determined by dividing MT after administration of each drug by MT before administration.

[7] = tested on: urethral resistance increasing effect of Compound A′; assay: Influence of antagonists (SB 242084, methiothepin) on urethral resistance increasing effect of Compound A′ in rats; format: in vivo, rat; details: mean ± SEM; for LPP Increase: Post minus Pre; for LPP Pre: before administration
Procedure: Ninety female rats of SD strain were used. […] Isoflurane inhalation was added during the surgery, if necessary. In the experiment with intrathecal administration, the dura mater was exposed by laminectomy and then partially opened by incision, through which a catheter (PE-10) filled with saline was then implanted at the level of the L6-S1 site, followed by the closing of the incision. After opening of the abdomen, a catheter (PE-90) was inserted into the bladder. In order to secure reduced urethral resistance, unilateral nerve to iliococcygeus and pubococcygeus muscles was transected. For intraduodenal administration, another catheter (PE-50) was inserted into the duodenum in advance. The abdominal muscle and skin were each closed with sutures. Two (right and left) sites of abdominal skin near the diaphragm were cut to expose abdominal muscle. The bladder was emptied through the catheter, followed by the injection of 0.2 to 0.3 mL of Evans blue solution. Change in intravesical pressure was recorded using the bladder catheter via a pressure transducer, an electric signal amplifier, and an analog-to-digital converter. While change in intravesical pressure was recorded, the presence or absence of fluid leakage from the urethral orifice was observed under the electrical stimulation of the exposed abdominal muscle using an electrical stimulator and an isolator. […] The peak of the intravesical pressure during the stimulation of the abdominal muscle was measured, and the lowest pressure at which the fluid leakage was observed among the trials was defined as LPP for the electrical abdominal muscle stimulation method. In order to examine whether the urethral resistance increasing effect of Compound A′ is based on its agonistic potency on 5-HT2C receptors, SB 242084, methiothepin, or a vehicle was intravenously administered, and Compound A′ or a vehicle was intraduodenally administered 5 minutes later. SB 242084 was dissolved in a mixed solution of N,N-dimethylacetamide and polyethylene glycol 400 (1:1) and administered at 0.03 mg/0.5 mL/kg, 0.1 mg/0.5 mL/kg and 0.3 mg/0.5 mL/kg. Methiothepin was dissolved in saline and administered at 0.03 mg/0.5 mL/kg. 0.1 mg/0.5 mL/kg and 0.3 mg/0.5 mL/kg. Compound A′ was suspended in 0.5% MC and administered at 3 mg/mL/kg. LPP was measured again 30 minutes after Compound A′ administration. In order to examine where Compound A′ works in the body to increase urethral resistance, the blocking of the effect of Compound A′ was confirmed by blocking the functions of Compound A′ by giving methiothepin at a particular site in the body. Particularly, in the experiment with intrathecal administration, methiothepin or a vehicle was intrathecally administered, and Compound A′ or a vehicle was intraduodenally administered 5 minutes later. Methiothepin was dissolved in saline and 20 μL of the obtained solution was administered. Compound A′ was suspended in 0.5% MC and administered at 3 mg/mL/kg. LPP was measured again 30 minutes after Compound A′ administration.
Regarding change in LPP before and after drug administration, the differences between the mean values of the Compound A′-treated and vehicle-treated groups were analyzed by the Student's t test or the Welch's test. In order to analyze the influence of the antagonists on the effect of Compound A′, the differences between the mean values of the SB 242084- or methiothepin- and Compound A′-administered group and the vehicle- and Compound A′-administered group were analyzed by the one-tailed Williams' test.

[8] = methiothepin 10 μg intrathecal + Compound A′ 3 mg/kg i.d.
[9] = methiothepin 30 μg intrathecal + Compound A′ 3 mg/kg i.d.
[10] = methiothepin 0.03 mg/kg i.v. + Compound A′ 3 mg/kg i.d.
[11] = methiothepin 100 μg intrathecal + Compound A′ 0 mg/kg i.d.
[12] = methiothepin 100 μg intrathecal + Compound A′ 3 mg/kg i.d.
[13] = methiothepin 0.1 mg/kg i.v. + Compound A′ 3 mg/kg i.d.
[14] = methiothepin 0.3 mg/kg i.v. + Compound A′ 0 mg/kg i.d.
[15] = methiothepin 0.3 mg/kg i.v. + Compound A′ 3 mg/kg i.d.

## C[C@H]1CNCCc2ccc(Cl)cc21 [Compound B, (R)-8-chloro-1-methyl-2,3,4,5-tetrahydro-1H-3-benzazepine]
[1]; second analysis: 14-fold lower than 43 ng/mL
  plasma concentration estimated to show sufficient effects on urethra-closing function in humans: around 3 ng/mL
[2]; 10 mg b.i.d. (launched dose), free form
  average plasma concentration in a day (steady state) giving a body weight lowering effect greater than placebo by 3.8% in humans: 43 ng/mL
[2]; 10 mg q.d., free form
  average plasma concentration in a day (steady state) giving a body weight lowering effect greater than placebo by 2.6% in humans: 24 ng/mL
[2]; after a single administration of a sustained release formulation containing 20 mg
  blood concentration: 39 ng/mL
[2]; launched dose 10 mg bid
  plasma concentration Cmin: 26 ng/mL
[2]; sustained release formulation containing 20 mg once daily
  blood concentration: 74 ng/mL
[3]; female, SD, plasma, po, 4 mg/kg
  concentration at 30 min: 32.9 ± 18 ng/mL
[3]; measured concentration multiplied by ratio between dosage used and LPP10
  plasma concentration at LPP10: 9.9 ng/mL

## CNCC[C@H](Oc1cccc2ccccc12)c1cccs1 [Duloxetine, duloxetine hydrochloride]
[1]; summary of Examples 2 and 5
  maximal urethral resistance increasing effect (LPP elevation) in rats: around 10 cmH2O
[4]; 30 minutes after administration, intravesical pressure rise by 50 cm H2O
  Urethra-closing reflex response Post: 8.66 ± 1.34 cmH2O
[4]; before administration, intravesical pressure rise by 50 cm H2O
  Urethra-closing reflex response Pre: 4.88 ± 0.86 cmH2O
[4]; ratio of Post value to Pre value
  Urethra-closing reflex response Ratio (Post/Pr): 2.00 ± 0.28
Urethral resistance [5]; 5 mg/kg i.d.
  LPP Post: 38.3 ± 2.7 cmH2O
  LPP Increase: 1.7 ± 1.4 cmH2O
  LPP Pre: 36.6 ± 3.0 cmH2O
Urethral resistance [5]; 10 mg/kg i.d.
  LPP Post: 39.1 ± 2.9 cmH2O
  LPP Increase: 3.7 ± 2.3 cmH2O
  LPP Pre: 35.3 ± 3.0 cmH2O
Urethral resistance [5]; 20 mg/kg i.d.
  LPP Post: 46.6 ± 5.7 cmH2O
  LPP Increase: 9.7 ± 3.5 cmH2O
  LPP Pre: 36.9 ± 2.8 cmH2O
Urethral resistance [6]; 5 mg/kg p.o.
  LPP Post: 64.1 ± 5.5 cmH2O
  LPP Increase: 4.2 ± 1.7 cmH2O
  LPP Pre: 59.9 ± 5.1 cmH2O
Urethral resistance [6]; 10 mg/kg p.o.
  LPP Post: 67.6 ± 3.5 cmH2O
  LPP Increase: 7.7 ± 2.2 cmH2O
  LPP Pre: 59.8 ± 3.8 cmH2O
Urethral resistance [6]; 20 mg/kg p.o.
  LPP Post: 69.8 ± 4.0 cmH2O
  LPP Increase: 11.9 ± 3.7 cmH2O
  LPP Pre: 57.9 ± 2.7 cmH2O
Urethral resistance [6]; 40 mg/kg p.o.
  LPP Post: 73.3 ± 5.3 cmH2O
  LPP Increase: 13.1 ± 2.9 cmH2O
  LPP Pre: 60.2 ± 3.1 cmH2O
urethra-closing response; 0.5 hr
  MT of the urethra-closing response in response to TMS, Mean: 67.4%
  Rate of change from baseline of MT of the urethra-closing response in response to TMS, Mean: −0.4%
urethra-closing response; 2 hr
  MT of the urethra-closing response in response to TMS, Mean: 62.0%
  Rate of change from baseline of MT of the urethra-closing response in response to TMS, Mean: −5.9%
urethra-closing response; 6 hr
  MT of the urethra-closing response in response to TMS, Mean: 56.4%
  Rate of change from baseline of MT of the urethra-closing response in response to TMS, Mean: −11.8%
urethra-closing response; Predose
  MT of the urethra-closing response in response to TMS, Mean: 67.8%
urethra-closing response; 40 mg group, at 6 hours post dose
  maximum change from baseline in MT in response to TMS: −11.8%

## CSc1ccc2c(c1)C(N1CCN(C)CC1)Cc1ccccc1S2.O=C(O)/C=C\C(=O)O (stereo not shown) [methiothepin, methiothepin maleate]
[7]; methiothepin 10 μg intrathecal + Compound A′ 3 mg/kg i.d., 30 minutes after Compound A′
  LPP Post: 69.4 ± 10.4 cmH2O
[7]; [8]
  LPP Increase: 35.3 ± 9.8 cmH2O
  LPP Pre: 34.1 ± 3.2 cmH2O
[7]; methiothepin 30 μg intrathecal + Compound A′ 3 mg/kg i.d., 30 minutes after Compound A′
  LPP Post: 52.1 ± 8.6 cmH2O
[7]; [9]
  LPP Increase: 11.1 ± 6.5 cmH2O
  LPP Pre: 41.0 ± 3.6 cmH2O
[7]; [10]
  LPP Increase: 17.9 ± 4.3 cmH2O
  LPP Pre: 44.4 ± 2.5 cmH2O
[7]; methiothepin 100 μg intrathecal + Compound A′ 0 mg/kg i.d., 30 minutes after i.d. administration
  LPP Post: 40.5 ± 3.2 cmH2O
[7]; [11]
  LPP Increase: −5.3 ± 3.0 cmH2O
  LPP Pre: 45.8 ± 4.8 cmH2O
[7]; methiothepin 100 μg intrathecal + Compound A′ 3 mg/kg i.d., 30 minutes after Compound A′
  LPP Post: 45.9 ± 5.5 cmH2O
[7]; [12]
  LPP Increase: 5.6 ± 3.5 cmH2O
  LPP Pre: 40.4 ± 3.0 cmH2O
[7]; methiothepin 0.1 mg/kg i.v. + Compound A′ 3 mg/kg i.d., 30 minutes after Compound A′
  LPP Post: 59.9 ± 3.7 cmH2O
[7]; [13]
  LPP Increase: 9.5 ± 3.3 cmH2O
  LPP Pre: 50.4 ± 4.4 cmH2O
[7]; methiothepin 0.3 mg/kg i.v. + Compound A′ 0 mg/kg i.d., 30 minutes after i.d. administration
  LPP Post: 44.0 ± 7.1 cmH2O
[7]; [14]
  LPP Increase: −2.0 ± 2.5 cmH2O
  LPP Pre: 46.0 ± 9.6 cmH2O
[7]; methiothepin 0.3 mg/kg i.v. + Compound A′ 3 mg/kg i.d., 30 minutes after Compound A′
  LPP Post: 40.6 ± 4.9 cmH2O
[7]; [15]
  LPP Increase: −2.2 ± 2.9 cmH2O
  LPP Pre: 42.9 ± 3.8 cmH2O
